Experimental findings from patent publication US20100197788A9, “Preventive or therapeutic agent for disease caused by decrease in lacrimal fluid” (priority 2005, published 2010) are described below.

Counter-ions that a name gives are not always drawn.

Assay [1] deals with male Japanese white rabbits. Briefly: Measurement of tear secretion in rabbits given a β3 AR stimulant (Example 1), with or without ICI-118551 pre-treatment. It counts as in vivo, rabbit. As for the experimental part:
Four fasting male Japanese white rabbits (about 3 kg) were allocated to each group. Compound 1 (hydrochloride, 3 or 30 mg/kg), a β3 AR stimulant, or the vehicle (0.5% gum Arabic) was administered to the duodenum through a needle placed in the duodenum of a rabbit, which was anesthetized with urethane (25%, 5 mL/kg, subcutaneously). The quantity of tear secretion was measured for 5 min before drug administration and for 5 min at 20 min after drug administration in the following manner. One piece each of pre-weighed filter paper (Wattman No. 41, 0.22 mm thick, 2.5×1.5 mm) was inserted to each of the upper and lower eyelids of either right or left eye. The difference in weight of the filter papers before and after insertion (post-insertion weight−pre-insertion weight) was defined as the quantity of tear secretion. Fifty (50) μL of a local anesthetic agent, 0.4% oxybuprocaine hydrochloride (Santen Co.), was instilled into eyes 5 min before each measurement. Tear and the instilled local anesthetic were wiped immediately before the filter paper was inserted. Filter papers recovered after each measurement were placed into tubes. A phosphate buffer (pH 7.4) (500 μL) was added to each of the tubes, and they were agitated for 30 sec. After the filter papers were removed and the mixture was centrifuged at 1,880×g for 5 min, protein concentrations in supernatant were measured using Micro BCA Protein Assay Reagent Kit (Pierce Co.). The quantity of protein in tear was calculated based on the protein concentration and the quantity of tear secretion at each time. The difference in the quantity of tear secretion before administration of a test drug and that at each measurement after administration was defined as a change in the quantity of tear secretion or protein in tear. Each milligram of the change in the quantity of tear was taken as 1 μL in tabulation. As a result, administration of Compound 1 (hydrochloride, 3 or 30 mg/kg) into the duodenum facilitated the tear secretion and protein secretion in tear.
In addition, in order to study the role played by a β2 AR stimulating activity in the above-described actions of Compound 1, 30 μg/kg of ICI-118551 (Sigma Co.), a selective β2 AR inhibitor, was administered intravenously 5 min before administration of Compound 1 (30 mg/kg) and the same test was performed. The facilitating activities of tear secretion and protein secretion in tear by Compound 1 were not affected by pre-treatment with the selective β2 AR inhibitor, ICI-118551 (30 μg/kg, i.v.) (FIG. 5). The results confirmed that the Compound 1's activities facilitating tear secretion and protein secretion in tear were exerted by way of β3 AR.

For assay [2], the system named is male Japanese white rabbits. In words: Measurement of tear in rabbits given a β3 AR stimulant having a β2 AR stimulating activity (Example 2). It counts as in vivo, rabbit. Conditions: for total quantity of protein secretion in tear / total quantity of tear secretion: 60 min, compared to Control group. As for the experimental part:
Four fasting male Japanese white rabbits (about 3 kg) were allocated to each group. Compound 2 (0.3, 1 or 10 mg/kg), which is a β3 AR stimulant having a β2 AR stimulating activity, terbutaline sulfate (10 mg/kg), which is a β2 AR stimulant, or their vehicle (distilled water) was administered to the duodenum through a needle placed in the duodenum of a rabbit which was anesthetized with urethane (25%, 5 mL/kg, subcutaneously). In the same manner as in Example 1, quantities of tear secretion and protein in tear were measured for each 5 min before drug administration and at 5, 20, 30, 40 and 50 min after drug administration. The total quantities of tear secretion and protein in tear were defined as the sum total of the quantities of secretion at each measurement time during 60 min after administration of the test drug. Each […] of the change in the quantity of tear was considered as 1 μL in tabulation.

Another assay has as its system male SD strain rats. Briefly: Measurement of tear in rats given a β3 AR stimulant having a β2 AR stimulating activity (Example 3). It counts as in vivo, rat. Conditions: for total quantity of protein secretion in tear / total quantity of tear secretion: 60 min, compared to Control group. As for the experimental part:
Nine (9) to 10 fasting male SD strain rats (7 weeks old) were allocated to each group. Rats were fixed in prone position under urethane anesthesia (25%, 5 mL/kg, subcutaneously). Compound 2 (0.3, 1 or 10 mg/kg), which is a β3 AR stimulant having a β2 AR stimulating activity, terbutaline sulfate (10 mg/kg), which is a β2 AR stimulant, or their vehicle (distilled water) were administered to the duodenum through a needle placed in the duodenum. One end of a capillary (Drummond Microdispenser Co. 10 μL) was placed at the inner canthus of rat right eye after tear was wiped. The quantity of tear secretion was measured by the length of the capillary filled with tear in 60 minutes after drug administration. The total quantity of tear secretion (μL) was calculated using the inner diameter of the capillary and the length of the capillary filled with tear. After the quantity of tear secretion was measured, the tear in the capillary was recovered in a tube to measure the protein concentration using Micro BCA Protein Assay Reagent Kit (Pierce Co.). The total quantity of protein in tear was calculated using the obtained protein concentration and the total quantity of tear secretion.

Assay [3] concerns male Japanese white rabbits. In words: Measurement of tear in rabbits following ocular instillation (Example 4). It counts as in vivo, rabbit. Conditions: 0.1% solution, 50 μL. On the procedure: Four fasting male Japanese white rabbits (about 3 kg) were allocated to each group. After rabbits were anesthetized with urethane (25%, 5 mL/kg, subcutaneously), 50 μL of Compound 2 (0.1% solution) or the vehicle (a phosphate buffer solution, pH 7.4) was instilled in either right or left eye. The quantity of tear secretion was measured and calculated for each 5 min before and at 5 and 20 min after instillation in the same manner as in Example 1. The difference in the quantity of tear secretion before administration of a test drug and that at each measurement time after ocular instillation was defined as a change in the quantity of tear secretion. Each milligram of the change in the quantity of tear secretion was considered as 1 μL in tabulation.

Another assay has as its system rabbit conjunctiva. In words: Mucin secretion from the rabbit conjunctiva following ocular instillation, impression cytology method (Example 5). The assay is classed as in vivo. Conditions: 0.1% solution, 50 μL, 30 min after instillation, vs vehicle, rabbits. On the procedure:
Four male Japanese white rabbits (about 3 kg) were allocated to each group. After rabbits were anesthetized with ketamine-xylazine (3:1), 50 μL of Compound 2 (0.1% solution), terbutaline sulfate (0.1% solution) or their vehicle (a phosphate buffer solution, pH 7.4) were instilled in either side of eyes. Mucin secretion from the conjunctiva was measured 30 min after instillation by impression cytology method. That is, after ocular instillation of 50 μL of a local anesthetic (0.4% oxybuprocaine hydrochloride by Santen Co.), residual tear was wiped 5 min after instillation and 3×3 mm cellulose acetate filter paper was pressed on the conjunctiva for 30 sec. Then, PAS staining was performed with the recovered filter papers in the same manner as in Example 2. After filter papers were cleared and embedded, the number of PAS positive goblet cells existing in a certain visual field of a microscope was counted. Decreases in the count of PAS positive goblet cells indicate that mucin secretion from the conjunctiva is facilitated. […] However, terbutaline sulfate had no effect (FIG. 9).

Where [4] appears, read: Compound 1 30 mg/kg, ICI-118551 30 μg/kg i.v. 5 min before.
[5] abbreviates: hydrochloride, 3 or 30 mg/kg into the duodenum, anesthetized rabbits, 5 min at 20 min after administration vs before.
The mark [6] stands for this setting: 0.3, 1 and 10 mg/kg into the duodenum.
The mark [7] stands for this setting: doses of 1 mg/kg and above into the duodenum.
[8] abbreviates: 10 mg/kg into the duodenum, compared to Compound 2 (10 mg/kg) group.

In the case of `CCOC(=O)COc1cc(C)c(CCN[C@@H](C)[C@H](O)c2ccc(O)cc2)cc1C` [Compound 1, ethyl 2-[4-[2-[[(1S,2R)-2-hydroxy-2-(4-hydroxy-phenyl)-1-methylethyl]amino]ethyl]-2,5-dimethylphenoxy]-acetate], the “change in the quantity of protein in tear” value in assay [1] (30 mg/kg into the duodenum, compared to Control group (p<0.05, Dunnett)) is on record as “significantly increased”. In addition, in assay [1] (setting [4]), the “facilitating activity of protein secretion in tear after pre-treatment with selective β2 AR inhibitor” value is given as “not affected” and the “facilitating activity of tear secretion after pre-treatment with selective β2 AR inhibitor” value is “not affected”. Also, in assay [1] (setting [5]), the “protein secretion in tear” value was “facilitated” and the tear secretion entry is listed as “facilitated”.
Take `C[C@H](NCCc1ccc(OCC(=O)O)cc1)[C@H](O)c1ccc(O)cc1` [Compound 2]: the “protein secretion in tear” value (in assay [2] (setting [6]); with male SD strain rats (setting [6])) was “facilitated dose-dependently” throughout. Further, the values for the tear secretion result (in assay [2] (setting [6]); in the assay with male SD strain rats (setting [6]); in assay [3]) were “facilitated dose-dependently”, “facilitated dose-dependently” and “facilitated”, respectively. The “total quantity of protein secretion in tear” value (in assay [2] (setting [7]); in the assay with male SD strain rats (setting [7])) was “significantly increased” throughout. Besides, the “total quantity of tear secretion” value (in assay [2] (setting [7]); in the assay on male SD strain rats (setting [7])) was “significantly increased” in each case. Also, the “quantity of tear secretion measured for 5 min after ocular instillation” value in assay [3] (compared to Control group) is reported as “significantly increased”. In addition, in the assay with rabbit conjunctiva, the “mucin secretion from the conjunctiva (count of PAS positive goblet cells)” value is on record as “facilitated mucin secretion from the conjunctiva more than the vehicle did”.
For the compound `CC(C)(C)NCC(O)c1cc(O)cc(O)c1` (stereo not drawn) [terbutaline sulfate, reference compound], in assay [2] (10 mg/kg into the duodenum), the “total quantity of protein secretion in tear” value was “significantly increased” and the “total quantity of tear secretion” value is listed as “significantly increased”. For the same compound, in assay [2] (setting [8]), the “increase in total quantity of protein secretion in tear” value was “significantly lower” and the “increase in total quantity of tear secretion” value is listed as “significantly lower”. Further, in the assay with male SD strain rats (10 mg/kg into the duodenum), the “total quantity of protein secretion in tear” value is reported as “significantly increased” and the “total quantity of tear secretion” value was “significantly increased”. Further, the “total quantity of protein in tear” value with male SD strain rats (setting [8]) is listed as “significantly lower”. In the assay on rabbit conjunctiva, the “mucin secretion from the conjunctiva (count of PAS positive goblet cells)” value is reported as “no effect”.
